One data set can be described thus: in vivo. The settings on record: rat, po, 50 mg/kg.
Data set [1] is described as follows: In-vivo pharmacokinetic analysis (beagle), single oral administration. To be noted: dog, plasma, beagles, Docetaxel PO 50 mg/kg. The source says:
The compositions of Example 83 and Comparative Example 1 were single orally administered to beagles to obtain plasma drug concentration information. The results are shown in Tables 12 and 13 below and FIGS. 8 and 9.

What is called AUC(0-t) is the area under the concentration-time curve up to a stated or last time point. The Cmax is the highest concentration seen after dosing. Usually Tmax stands for the time at which the peak concentration occurs.

Protocol for in vivo: The graphs of FIGS. 1, 3, 5, and 6 show the docetaxel concentrations in plasma over time in rats, which were measured by collecting blood at 0 hr, 0.25 hr, 0.5 hr, 1 hr, 2 hr, 4 hr, 6 hr, 8 hr, and 12 hr.

Regarding `CC(=O)O[C@@]12CO[C@@H]1C[C@H](O)[C@@]1(C)C(=O)[C@H](O)C3=C(C)[C@@H](OC(=O)[C@H](O)[C@@H](NC(=O)OC(C)(C)C)c4ccccc4)C[C@@](O)([C@@H](OC(=O)c4ccccc4)[C@H]21)C3(C)C` [Comparative Example 1, Docetaxel], in the data set “in vivo”, the AUC(0-t) worked out at 0.85 ng·h/mL, the highest level (Cmax) was 0.12 ng/mL and the Tmax was 12 h. Also, in data set [1], the exposure AUC(0-t) was found to be 1.86 ng·h/mL, the highest level (Cmax) was 0.5 ng/mL and the time to peak (Tmax) was found to be 3.5 h. The compound also registered a concentration at 0.25 h in data set [1] (0.25 h, mean n = 2) of 0.239 ng/mL. Besides, the concentration at 0.5 h in data set [1] (0.5 h, mean n = 2) came out at 0.219 ng/mL. The compound further came in with a concentration at 1 h in data set [1] (1 h, mean n = 2) of 0.243 ng/mL. This compound gave a concentration at 2 h in data set [1] (2 h, mean n = 2) of 0.14 ng/mL. In addition, the concentration at 4 h in data set [1] (4 h, mean n = 2) is 0.621 ng/mL. The concentration at 6 h in data set [1] (6 h, mean n = 2) is 0.675 ng/mL. The compound further gave a concentration at 8 h in data set [1] (8 h, mean n = 2) of 0.222 ng/mL.
